Source: patent US9150887B2, “Ethanologenic bacteria with increased resistance to furfural” (UNIVERSITY OF FLORIDA RESEARCH FOUNDATION, INC., priority 2009, dated 2015)
Converted amounts (≈) assume the structure as drawn. “Also recorded” adds a separate entry of the source. Where two headings read alike, the source gives them in different places.

What was measured:
EMFR9 [1] = test: Furfural toxicity (MIC) in tube cultures; assay type: cell-based, Escherichia coli; details: for MIC: other compounds of hemicellulose hydrolysates, data not shown
Method: (§1) Cultures were inoculated to an initial density of 17 mg dcw liter^−1. Cell mass was measured after incubation at 37° C. for 24 h and 48 h.

LY180 [2] = test: Furfural toxicity (MIC) in tube cultures; assay type: cell-based, Escherichia coli; details: for MIC: other compounds of hemicellulose hydrolysates, data not shown
Method: as §1

DkgA [3] = target: T1, DkgA (Escherichia coli, UniProt Q46857); test: Kinetic analysis of purified His-tagged DkgA; assay type: biochemical; details: purified enzyme, with furfural; read-out: apparent Km for NADPH
T1 construct: For-[…]; His-tag (N); made in house; host or cells: E. coli BL21 (DE3)
Method: Both the yqhD and dkgA genes were cloned into a Novagen pET-15b vector and expressed as a His-tagged protein in E. coli BL21 (DE3). Cells were grown with IPTG to approximately 1.3 g dcw liter^−1, washed with 100 mM phosphate buffer, and lysed using MP Fast Prep-24 (MP Biomedical, Solon Ohio) and Lysing Matrix B. Crude extracts were passed through a 0.22 μm PVDF filter and further purified using a 1 mL HiTrap nickel column. Purified enzymes were dialyzed in 100 mM phosphate buffer using a Thermo Slide-A-Lyser and quantified using a Thermo BCA Protein Assay Kit. Purity of YqhD and DkgA were estimated to be greater than 90% by SDS-PAGE. […] Estimated sizes of the purified proteins were in agreement with predicted values of 43 kD and 31 kD, respectively. Apparent Kcat and apparent Km values were determined for both purified enzymes using NADPH and furfural.

YqhD [4] = target: T2, YqhD (Escherichia coli, UniProt Q46856); parameters: For-[…]; His-tag (N); made in house; host or cells: E. coli BL21 (DE3); details: Miller et al. 2009b; read-out: apparent Km for NADPH; cited from earlier work
T2 sequence (Q46856 1-387): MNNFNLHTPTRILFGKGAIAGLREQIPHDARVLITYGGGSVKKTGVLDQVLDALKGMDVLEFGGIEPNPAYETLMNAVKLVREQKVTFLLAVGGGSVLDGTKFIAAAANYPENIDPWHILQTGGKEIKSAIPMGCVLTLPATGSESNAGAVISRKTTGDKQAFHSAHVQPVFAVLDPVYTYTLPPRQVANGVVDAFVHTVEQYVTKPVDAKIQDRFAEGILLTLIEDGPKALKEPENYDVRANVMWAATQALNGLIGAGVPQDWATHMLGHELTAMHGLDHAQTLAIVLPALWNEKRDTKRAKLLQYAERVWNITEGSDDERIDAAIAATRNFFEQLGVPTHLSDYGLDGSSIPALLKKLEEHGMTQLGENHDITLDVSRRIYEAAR

DkgA [5] = target: T1, DkgA; details: Miller et al. 2009b; read-out: apparent Km for NADPH; cited from earlier work
YqhD [6] = target: T2, YqhD; test: Kinetic analysis of purified His-tagged YqhD; details: read-out: apparent Km for NADPH; purified enzyme, with furfural
Method: (§9) Cells were grown with IPTG to approximately 1.3 g dcw liter^−1, washed with 100 mM phosphate buffer, and lysed using MP Fast Prep-24 (MP Biomedical, Solon Ohio) and Lysing Matrix B. Crude extracts were passed through a 0.22 μm PVDF filter and further purified using a 1 mL HiTrap nickel column. Purified enzymes were dialyzed in 100 mM phosphate buffer using a Thermo Slide-A-Lyser and quantified using a Thermo BCA Protein Assay Kit. […] Apparent Kcat and apparent Km values were determined for both purified enzymes using NADPH and furfural.

yqhD promoter [7] = test: Luciferase reporter activity from the yqhD promoter in EMFR9; assay type: cell-based, Escherichia coli; details: EMFR9 with yqhD promoter reporter plasmid; furfural addition
Method: (§2) Cultures of E. coli carrying appropriate reporter plasmids were grown in AM1-5% xylose to OD 0.2-0.4. After addition of furfural, cells were pelleted, resuspended in Qiagen Qproteome bacterial lysis buffer, and stored at −80° C. The lysates were thawed at 37° C. for 2 minutes, and transferred to a white 96-well plate. An equal volume (50 uL) of PerkinElmer BriteLite reagent was added to each well, and the luminescence measured in a Promega Glomax 96-well luminometer.
(§3) Cultures of E. coli carrying appropriate reporter plasmids were grown in AM1-50 g liter^−1 xylose to OD 0.4. After sampling the cultures, furfural was added, and incubation continued for 5, 15 or 30 min before sampling again. Untreated and furfural-treated cells were pelleted, resuspended in Qiagen Qproteome bacterial lysis buffer, and stored at −80° C. The lysates were thawed at 37° C. for 2 minutes, and transferred to a 96-well plate (white). An equal volume (50 μL) of PerkinElmer BriteLite reagent was added to each well. Luminescence was measured using a Promega Glomax 96-well luminometer.

yqhD promoter [8] = test: Luciferase reporter activity from the yqhD promoter in LY180ΔyqhC; assay type: cell-based, Escherichia coli; details: yqhC deletion strain with pLOI4900; furfural addition
Method: as §2
(§4) Plasmid pLOI4900 was constructed by transferring the firefly luciferase gene into pBAD24 (Guzman et al. 1995 J. Bacteriol. 177: 4121-4130), and then replacing the araC gene and pBAD promoter regions with a 150-bp region upstream from the yqhD gene in LY180. This putative yqhD promoter region was PCR amplified using primers PCT6 and PCT7 (Table 2).
as §3, with “An equal volume (50 μL) of PerkinElmer BriteLite reagent was added to each well.” left out

yqhD promoter [9] = test: Luciferase reporter activity from the yqhD promoter in EMFR17; assay type: cell-based, Escherichia coli; details: EMFR17 with pPyqhD-luc; furfural addition
Method: as §2

LY180ΔyqhC = test: Furfural reduction in vivo during fermentation; assay type: cell-based, Escherichia coli; details: furfural 0.5 g liter^−1
Method: (§5) Cultures grown to a cell density of […] in fleakers containing 350 mL AM1-10% xylose medium were sampled immediately before and 15, 30, and 60 minutes after addition of furfural to 0.5 g/L. The residual furfural concentration in the culture was determined after removal of bacterial cells by centrifugation. A spectrophotometric method was used, as described previously.
(§6) Cultures were grown to a cell density of 0.66 g dcw liter^−1 in fleakers containing 350 mL AM1-100 g liter^−1 xylose medium and sampled immediately before and 15, 30, and 60 minutes after addition of furfural (to 0.5 g liter^−1) as previously described (Miller et al. 2009 Appl. Environ. Microbiol. 75:4315-4323). Residual furfural was measured in the culture broth after centrifugation using a spectrophotometric method (Martinez et al. 2000 Biotechnol. Prog. 16: 637-641).

LY180 [10] = test: Furfural reduction in vivo during fermentation; assay type: cell-based, Escherichia coli; details: furfural 0.5 g liter^−1
Method: as §5, §6

EMFR9 [11] = test: Furfural resistance and metabolism during pH-controlled fermentation; assay type: cell-based, Escherichia coli
Method: (§7) Furfural resistance was compared in small fermenters (37° C., 150 rpm, pH 6.5, 350-ml working volume) using AM1 medium (Martinez et al. 2007 Biotechnol. Lett. 29:397-404) containing 100 g liter^−1 xylose. Seed cultures were inoculated to approximately 33 mg dcw liter^−1. Samples were removed periodically to measure cell mass, ethanol, and furfural.

LY180 [12] = test: as above; assay type: cell-based, Escherichia coli
Method: as §7

[13] = test system: yqhC, yqhD and dkgA transcripts in LY180; test: Microarray analysis of transcripts after furfural addition; assay type: cell-based, Escherichia coli; details: 15 min after 0.5 g liter^−1 furfural
Method: For each strain, 4 replicate 350 ml cultures were grown to OD=[…] (0.66 g dcw liter^−1) and sampled. Furfural (0.5 g liter^−1) was added and samples were removed after 15 minutes of incubation. Culture samples were cooled in a dry ice/ethanol bath. Cells were pelleted at 4° C., resuspended in RNA Later (Qiagen), and stored at −80° C. Cell pellets from the 4 fermentors were pooled and used for RNA isolation (Qiagen RNeasy Mini Kit). RNA was treated with DNase, re-purified, and assessed for quality using an Agilent Bioanalyzer. RNA samples were submitted to Nimblegen for conversion to cDNA, labeling with Cy3, and hybridization to the E. coli K12 TI8333 microarray chip. This chip contains 385,000 60-mer probes derived from E. coli K12 strain MG1655, and has 5 replicates of each probe with an average of 18 probes per gene. Normalized expression data from Nimblegen was imported into ArrayStar (DNA Star) for analysis.

yqhD promoter [14] = test: Luciferase reporter activity from the yqhD promoter in LY180; assay type: cell-based, Escherichia coli
Method: as §2, §4, §3

LY180 [15] = test: 5-HMF tolerance in tube cultures with cysteine supplement; assay type: cell-based, Escherichia coli
Method: Tolerance to 5-HMF was tested using 13×100 mm closed tubes containing 4 ml AM1 and 5-HMF as indicated. When appropriate, antibiotics were included for plasmid maintenance. Tubes were inoculated to an initial density of 0.05 OD550 nm. […] To examine the effects of pntAB on furan tolerance, a multiwall plate containing 400 μl of AM1 (and 5-HMF or furfural) per well was inoculated as above. OD(420-580 nm bandwidth) was measured for 72 h using a Bioscreen C growth analyzer (Oy Growth Curves, Helsinki, Finland).

EMFR9 [16] = test: Effect of 5-HMF on anaerobic growth and fermentation; assay type: cell-based, Escherichia coli
Method: (§8) For fermentation experiments, seed cultures of LY180 and EMFR9 were grown overnight in small fermentors (37° C., 200 rpm) containing 350 ml of AM1 medium. Broth was maintained at pH 6.5 by the automatic addition of 2 N KOH. Upon reaching mid-log phase, experimental fermenters were inoculated to an initial cell density of 0.1 OD550 nm. (33 mg dry cell weight l^−1). Cell mass (OD550 nm) and furan levels were monitored at 12-h intervals as described previously (Martinez et al. 2000b Biotechnol Prog 16: 637-641).

LY180 [17] = test: as above; assay type: cell-based, Escherichia coli; details: 1.0 g l^−1 5-HMF; 100 g l^−1 xylose
Method: as §8

[18] = substrate: O=Cc1ccco1; test: cells, lysate or membranes named; details: other: purified enzyme, NADPH-dependent reduction
Method: as §9

[19] = mineral salts media with 50 g liter^−1 xylose, 48 h
[20] = xylose-mineral salts medium with yeast extract (1.0 g liter^−1)

T1 sequence (Q46857 whole entry): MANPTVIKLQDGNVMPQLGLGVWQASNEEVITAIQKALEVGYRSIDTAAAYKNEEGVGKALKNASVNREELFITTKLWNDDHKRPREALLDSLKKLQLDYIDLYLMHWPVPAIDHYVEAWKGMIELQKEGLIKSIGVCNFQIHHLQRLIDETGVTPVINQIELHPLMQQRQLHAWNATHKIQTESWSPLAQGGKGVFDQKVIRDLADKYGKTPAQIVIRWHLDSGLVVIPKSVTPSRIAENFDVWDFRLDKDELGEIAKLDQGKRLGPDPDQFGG

## COc1cc(C=O)cc(OC)c1O [syringaldehyde]
EMFR9 [1]
  MIC: 2.0 g/L (≈ 11 mM)
LY180 [2]
  MIC: 2.0 g/L (≈ 11 mM)

## NADPH
DkgA [3]
  Km: 23 µM
YqhD [4]
  Km: 8 µM
DkgA [5]
  Km: 23 µM
YqhD [6]
  Km: 8 µM

## O=Cc1ccco1 [furfural]
yqhD promoter [7]
  effect on luciferase expression: luciferase expression was not increased; also recorded: did not increase luciferase activity
yqhD promoter [8]
  effect on luciferase activity: no furfural-dependent response was observed
yqhD promoter [9]
  effect on luciferase expression: luciferase expression was not increased
LY180ΔyqhC
  in vivo rate of furfural reduction: 0.025±0.005 μmol min^−1 mg dcw^−1
LY180 [10]
  in vivo rate of furfural reduction: 0.042±0.001 μmol min^−1 mg dcw^−1
EMFR9 [11]; 0.4 g liter^−1 furfural
  time to complete reduction of furfural: 12 h
EMFR9 [11]; 1.0 g liter^−1 furfural
  time to complete reduction of furfural: 18 h
EMFR9 [11]; furfural 0.4 g liter^−1 or 1.0 g liter^−1
  effect on growth and fermentation: virtually unaffected
LY180 [12]; 0.4 g liter^−1 furfural, 100 g liter^−1 xylose
  effect on growth and ethanol production: initial lag in growth and ethanol production
LY180 [12]; 1.0 liter^−1 furfural, 72-h incubation
  effect on growth and ethanol production: strongly inhibited
[13]
  up-regulation of yqhC, yqhD and dkgA transcripts: > 6 fold
yqhD promoter [14]; LY180(pLOI4900), furfural 1 mM, 5 mM and 10 mM, evident within 5 min
  effect on luciferase activity: dose-dependent increase in luciferase activity
yqhD promoter [14]; LY180 carrying pPyqhD-luc, 15 minutes after addition of furfural
  effect on luciferase activity: activity was increased
EMFR9 [1]; [19]
  minimal inhibitory concentration (MIC) of furfural: ~2.0 g/L
EMFR9 [1]; xylose replaced with glucose
  furfural MIC: 2.5 g/L
EMFR9 [1]; [20]
  furfural MIC: 2.5 g/L
LY180 [2]; [19]
  minimal inhibitory concentration (MIC) of furfural: approximately 1.0 g liter^−1
LY180 [2]; xylose replaced with glucose
  furfural MIC: 1.5 g/L
LY180 [2]; [20]
  furfural MIC: 2.0 g/L

## CC(=O)C=O [Methylglyoxal]
yqhD promoter [14]; LY180(pLOI4900), 0.1 mM
  effect on luciferase activity: increase luciferase activity

## OCc1ccco1 [furfuryl alcohol]
EMFR9 [1]
  MIC: 15 g/L (≈ 153 mM)
LY180 [2]
  MIC: 15 g/L (≈ 153 mM)

## N[C@@H](CS)C(=O)O [cysteine, L-cysteine]
LY180 [15]; 100 μM cysteine with 1 g l^−1 5-HMF
  restoration of growth by supplement: completely restored
LY180 [15]; 100 μM or 1000 μM cysteine with 2.5 g l^−1 5-HMF
  restoration of growth by supplement: not restored
LY180 [15]; cysteine supplements
  effect of supplement on the MIC for 5-HMF: did not increase the MIC

## O=Cc1ccc(CO)o1 [5-HMF, 5-hydroxymethyl furfural]
EMFR9 [16]; 1.0 g l^−1 5-HMF
  effect on cell yield or ethanol yield: no detrimental effect
EMFR9 [16]; 2.5 g 5-HMF l^−1
  effect on ethanol production and growth: slowed
  time to completion of ethanol production and growth: 96 h
LY180 [17]
  effect on growth: completely inhibited
LY180 [15]; 1 g l^−1 5-HMF, tube cultures, 24 h
  effect on growth: partially inhibited

B1: YqhD (Escherichia coli K-12) (protein)
chain: T2 sequence (Q46856 1-387)
[18]
  Km: 9.0 mM
